Literature values, collected in patent US12133849B2, “Method for treating cancer using a BCL-2 inhibitor in conjunction with an alpha- emitting radioimmunotherapeutic” (Actinium Pharmaceuticals, Inc., priority 2017, dated 2024).

## CC1(C)CCC(CN2CCN(c3ccc(C(=O)NS(=O)(=O)c4ccc(NCC5CCOCC5)c([N+](=O)[O-])c4)c(Oc4cnc5[nH]ccc5c4)c3)CC2)=C(c2ccc(Cl)cc2)C1 [venetoclax]
  patients experiencing grade 3 and/or 4 neutropenia: 40%
